Laboratory results reported in patent US12612384B2, “Heterocyclic CYP4A inhibitor compounds and compositions thereof” (MBD CO., LTD., priority 2021, dated 2026).

Target: T1, CYP4A (Homo sapiens, UniProt Q02928)
T1 construct: purchased; host or cells: bacterial membranes ('bactosome')
T1 sequence (Q02928 5-519): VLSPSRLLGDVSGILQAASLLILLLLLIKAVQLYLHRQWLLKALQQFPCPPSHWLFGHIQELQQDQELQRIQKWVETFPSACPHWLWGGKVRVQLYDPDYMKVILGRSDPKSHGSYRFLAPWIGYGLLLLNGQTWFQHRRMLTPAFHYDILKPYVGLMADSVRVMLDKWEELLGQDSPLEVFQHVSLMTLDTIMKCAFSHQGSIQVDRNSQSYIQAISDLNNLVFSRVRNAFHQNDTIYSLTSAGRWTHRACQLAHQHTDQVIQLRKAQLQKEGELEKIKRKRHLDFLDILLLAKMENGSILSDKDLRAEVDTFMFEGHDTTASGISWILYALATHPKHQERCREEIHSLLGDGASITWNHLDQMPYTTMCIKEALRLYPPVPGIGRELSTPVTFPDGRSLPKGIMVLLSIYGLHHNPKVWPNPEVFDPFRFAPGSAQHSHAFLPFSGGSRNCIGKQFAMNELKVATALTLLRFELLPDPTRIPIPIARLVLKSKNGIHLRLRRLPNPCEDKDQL
Test: CYP4A enzyme assay (luminescence, Luciferin-ME)
Format: biochemical
Settings: Compound concentration 5 μM; 70%-90%; read-out: % Inhibition 70%-90%
Description: The CYP4A inhibitory activity of the above compounds of the examples was measured. The reagents used in the experiment were commercially available, and were prepared and used when necessary. The device used for measuring activity was SpectraMax of MOLECULAR DEVICES.
CYP4A bactosome and the compounds to be evaluated (5 μM) were each diluted in assay buffer (100 mM KPO4, 0.1% BSA, 1 mM DTT) and mixed in a 384 well plate (white opaque polystyrene nontreated flat-bottom well), and reaction was carried out at room temperature for 15 minutes. To induce CYP4A reaction, 5 mM Luciferin-ME, NADPH Regeneration system (10× sol. A, 20× sol. B in assay buffer, Cat. Number: V865B, Promega) were sequentially added and mixed, and the reaction was carried out at room temperature for 30 minutes. Then, Luciferin Detection reagent was added thereto and reacted at room temperature for 15 minutes to stop the CYP4A reaction and induce a luminescence reaction. Finally, after measuring the luminescence value using a microplate reader, the inhibition of CYP4A activity by the compounds was evaluated by comparing the luminescence value from each well.

O=C(C1CCN(S(=O)(=O)c2ccc(Br)cc2)C1)N1CCN(c2ccnc3ccccc23)CC1 (centres unmarked) [Example 31, (1-((4-bromophenyl)sulfonyl)pyrrolidin-3-yl)(4-(quinolin-4-yl)piperazin-1-yl)methanone] and COc1ccc(S(=O)(=O)N2CCC(C(=O)N3CCN(c4ccnc5ccccc45)CC3)C2)cn1 (centres unmarked) [Example 51, (1-((6-methoxypyridin-3-yl)sulfonyl)pyrrolidin-3-yl)(4-(quinolin-4-yl)piperazin-1-yl)methanone] fall in the same range of inhibition at 5 µM: 70 to 90% for the first, 70 to 90% for the second.

O=C(C1CCN(S(=O)(=O)c2cccs2)C1)N1CCN(c2ccnc3ccccc23)CC1 (centres unmarked) [Example 36, (4-(quinolin-4-yl)piperazin-1-yl)(1-(thiophen-2-ylsulfonyl)pyrrolidin-3-yl)methanone] and Cc1ccc(S(=O)(=O)N2CCC(C(=O)N3CCN(c4ccnc5ccccc45)CC3)C2)s1 (centres unmarked) [Example 37, (1-((5-methylthiophen-2-yl)sulfonyl)pyrrolidin-3-yl)(4-(quinolin-4-yl)piperazin-1-yl)methanone] fall in the same range of inhibition at 5 µM: 70 to 90% for the first, 70 to 90% for the second.

O=C(C1CCN(S(=O)(=O)c2ccc(C(F)(F)F)cn2)C1)N1CCN(c2ccnc3ccccc23)CC1 (centres unmarked) [Example 41, (4-(quinolin-4-yl)piperazin-1-yl)(1-((5-(trifluoromethyl)pyridin-2-yl)sulfonyl)pyrrolidin-3-yl)methanone] and COC(=O)c1sccc1S(=O)(=O)N1CCC(C(=O)N2CCN(c3ccnc4ccccc34)CC2)C1 (centres unmarked) [Example 50, methyl 3-((3-(4-(quinolin-4-yl)piperazine-1-carbonyl)pyrrolidin-1-yl)sulfonyl)thiophene-2-carboxylate] fall in the same range of inhibition at 5 µM: 70 to 90% for the first, 70 to 90% for the second.

O=C(C1CCN(Cc2ccc([N+](=O)[O-])cc2)C1)N1CCN(c2ccnc3cc(F)ccc23)CC1 (centres unmarked) [Example 53, (4-(7-fluoroquinolin-4-yl)piperazin-1-yl)(1-(4-nitrobenzyl)pyrrolidin-3-yl)methanone] and O=C(C1CCN(S(=O)(=O)c2ccc(Br)cc2)CC1)N1CCN(c2ccnc3cc(F)ccc23)CC1 [Example 56, (1-((4-bromophenyl)sulfonyl)piperidin-4-yl)(4-(7-fluoroquinolin-4-yl)piperazin-1-yl)methanone] fall in the same range of inhibition at 5 µM: 70 to 90% for the first, 70 to 90% for the second.

Same assay, conditions: Compound concentration 5 μM; Greater than 90%; read-out: % Inhibition Greater than 90%

Point of comparison: O=C(C1CCN(S(=O)(=O)c2ccc(-c3ccncc3)cc2)CC1)N1CCN(c2ccnc3cc(F)ccc23)CC1 [Example 57, (4-(7-fluoroquinolin-4-yl)piperazin-1-yl)(1-((4-(pyridin-4-yl)phenyl)sulfonyl)piperidin-4-yl)methanone], inhibition at 5 µM 0%. Against it:
- O=C(C1CCN(S(=O)(=O)c2ccc(-c3cccnc3)nc2)C1)N1CCN(c2ccnc3ccccc23)CC1 (centres unmarked) [Example 29, (1-([2,3′-bipyridin]-5-ylsulfonyl)pyrrolidin-3-yl)(4-(quinolin-4-yl)piperazin-1-yl)methanone] — higher, > 90%
- CC(=O)Nc1ccc(S(=O)(=O)N2CCC(C(=O)N3CCN(c4ccnc5ccccc45)CC3)C2)cn1 (centres unmarked) [Example 30, N-(5-((3-(4-(quinolin-4-yl)piperazine-1-carbonyl)pyrrolidin-1-yl)sulfonyl)pyridin-2-yl)acetamide] — higher, > 90%
- O=C(C1CCN(S(=O)(=O)c2ccc(-c3cccnc3)cc2)C1)N1CCN(c2ccnc3ccccc23)CC1 (centres unmarked) [Example 32, (1-((4-(pyridin-3-yl)phenyl)sulfonyl)pyrrolidin-3-yl)(4-(quinolin-4-yl)piperazin-1-yl)methanone] — higher, > 90%
- Cc1ncc(-c2ccc(S(=O)(=O)N3CCC(C(=O)N4CCN(c5ccnc6ccccc56)CC4)C3)cc2)cn1 (centres unmarked) [Example 33, (1-((4-(2-methylpyrimidin-5-yl)phenyl)sulfonyl)pyrrolidin-3-yl)(4-(quinolin-4-yl)piperazin-1-yl)methanone] — higher, > 90%
- O=C(C1CCN(S(=O)(=O)c2ccc(-c3ccc(O)nc3)cc2)C1)N1CCN(c2ccnc3ccccc23)CC1 (centres unmarked) [Example 34, (1-((4-(6-hydroxypyridin-3-yl)phenyl)sulfonyl)pyrrolidin-3-yl)(4-(quinolin-4-yl)piperazin-1-yl)methanone] — higher, > 90%
- O=C(C1CCN(S(=O)(=O)c2ccc(N3CCOCC3)cc2)C1)N1CCN(c2ccnc3ccccc23)CC1 (centres unmarked) [Example 35, (1-((4-morpholinophenyl)sulfonyl)pyrrolidin-3-yl)(4-(quinolin-4-yl)piperazin-1-yl)methanone] — higher, > 90%
- Cc1nn(C)c(C)c1S(=O)(=O)N1CCC(C(=O)N2CCN(c3ccnc4ccccc34)CC2)C1 (centres unmarked) [Example 38, (4-(quinolin-4-yl)piperazin-1-yl)(1-((1,3,5-trimethyl-1H-pyrazol-4-yl)sulfonyl)pyrrolidin-3-yl)methanone] — higher, > 90%
- Cc1noc(C)c1S(=O)(=O)N1CCC(C(=O)N2CCN(c3ccnc4ccccc34)CC2)C1 (centres unmarked) [Example 39, (1-((3,5-dimethylisoxazol-4-yl)sulfonyl)pyrrolidin-3-yl)(4-(quinolin-4-yl)piperazin-1-yl)methanone] — higher, > 90%
- Cc1nc(C)c(S(=O)(=O)N2CCC(C(=O)N3CCN(c4ccnc5ccccc45)CC3)C2)s1 (centres unmarked) [Example 40, (1-((2,4-dimethylthiazol-5-yl)sulfonyl)pyrrolidin-3-yl)(4-(quinolin-4-yl)piperazin-1-yl)methanone] — higher, > 90%
- O=C(C1CCN(S(=O)(=O)c2ncc[nH]2)C1)N1CCN(c2ccnc3ccccc23)CC1 (centres unmarked) [Example 42, (1-((1H-imidazol-2-yl)sulfonyl)pyrrolidin-3-yl)(4-(quinolin-4-yl)piperazin-1-yl)methanone] — higher, > 90%
- O=C(C1CCN(S(=O)(=O)c2ncn[nH]2)C1)N1CCN(c2ccnc3ccccc23)CC1 (centres unmarked) [Example 43, (1-((1H-1,2,4-triazol-5-yl)sulfonyl)pyrrolidin-3-yl)(4-(quinolin-4-yl)piperazin-1-yl)methanone] — higher, > 90%
- Cn1cc(S(=O)(=O)N2CCC(C(=O)N3CCN(c4ccnc5ccccc45)CC3)C2)cn1 (centres unmarked) [Example 44, (1-((1-methyl-1H-pyrazol-4-yl)sulfonyl)pyrrolidin-3-yl)(4-(quinolin-4-yl)piperazin-1-yl)methanone] — higher, > 90%
- Cc1n[nH]c(C)c1S(=O)(=O)N1CCC(C(=O)N2CCN(c3ccnc4ccccc34)CC2)C1 (centres unmarked) [Example 45, (1-((3,5-dimethyl-1H-pyrazol-4-yl)sulfonyl)pyrrolidin-3-yl)(4-(quinolin-4-yl)piperazin-1-yl)methanone] — higher, > 90%
- Cn1cnc(S(=O)(=O)N2CCC(C(=O)N3CCN(c4ccnc5ccccc45)CC3)C2)c1 (centres unmarked) [Example 46, (1-((1-methyl-1H-imidazol-4-yl)sulfonyl)pyrrolidin-3-yl)(4-(quinolin-4-yl)piperazin-1-yl)methanone] — higher, > 90%
- CC(=O)Nc1nc(C)c(S(=O)(=O)N2CCC(C(=O)N3CCN(c4ccnc5ccccc45)CC3)C2)s1 (centres unmarked) [Example 47, N-(4-methyl-5-((3-(4-(quinolin-4-yl)piperazine-1-carbonyl)pyrrolidin-1-yl)sulfonyl)thiazol-2-yl)acetamide] — higher, > 90%
- CC(=O)Nc1nc(C)c(S(=O)(=O)N2CC[C@@H](C(=O)N3CCN(c4ccnc5ccccc45)CC3)C2)s1 [Example 48, (R)—N-(4-methyl-5-((3-(4-(quinolin-4-yl)piperazine-1-carbonyl)pyrrolidin-1-yl)sulfonyl)thiazol-2-yl)acetamide] — higher, > 90%
- CC(=O)Nc1nc(C)c(S(=O)(=O)N2CC[C@H](C(=O)N3CCN(c4ccnc5ccccc45)CC3)C2)s1 [Example 49, (S)—N-(4-methyl-5-((3-(4-(quinolin-4-yl)piperazine-1-carbonyl)pyrrolidin-1-yl)sulfonyl)thiazol-2-yl)acetamide] — higher, > 90%
- O=C(C1CCN(S(=O)(=O)c2cccc(F)n2)C1)N1CCN(c2ccnc3ccccc23)CC1 (centres unmarked) [Example 52, (1-((6-fluoropyridin-2-yl)sulfonyl)pyrrolidin-3-yl)(4-(quinolin-4-yl)piperazin-1-yl)methanone] — higher, > 90%
- O=C(C1CCN(S(=O)(=O)c2ccc([N+](=O)[O-])cc2)CC1)N1CCN(c2ccnc3cc(F)ccc23)CC1 [Example 54, (4-(7-fluoroquinolin-4-yl)piperazin-1-yl)(1-((4-nitrophenyl)sulfonyl)piperidin-4-yl)methanone] — higher, > 90%
- CC(=O)Nc1cccc(S(=O)(=O)N2CCC(C(=O)N3CCN(c4ccnc5cc(F)ccc45)CC3)CC2)c1 [Example 55, N-(3-((4-(4-(7-fluoroquinolin-4-yl)piperazine-1-carbonyl)piperidin-1-yl)sulfonyl)phenyl)acetamide] — higher, > 90%
